Measurements published in patent publication US20020061866A1, “Pharmaceutical compositions comprising in combination a bisphosphonate and a matrix metalloproteinase inhibitor” (priority 1999, published 2002).
pIC50: −log10 of the molar value. “And” between values parts separate entries of the source, which are not always exact repeats. Equal entries are not always repeated.

Experiments:
[1] = tested on: human PC-3 ML prostatic cancer subclones; settings: pretreatment of SCID mice; cited from earlier work
[2] = tested on: MMP-2 production and secretion by PC-3 ML cells; settings: in vitro and in vivo; cited from earlier work
[3] = tested on: human estrogen-independent breast cancer MDA-231 cells; settings: nontransfected MDA-231 cells, daily subcutaneous administration; cited from earlier work
OPM-2 = experiment: Proliferation of HMCL, [3H]-thymidine incorporation; assay type: cell-based, human; settings: for pIC50: Homo sapiens, OPM-2, 72 h, 3 days
Procedure: (§1) The human myeloma cell lines (HMCL) LP-1 and OPM-2 were obtained from DSM (Braunschweig, Germany). JJN-3 was kindly provided by B Van Campo (VUB, Belgium). Cells are maintained in RPMI 1640 culture medium supplemented with 10% fetal calf serum (FCS), 2mM glutamine, antibiotics (100 IU/ml penicillin and 100 μg/ml streptomycin) and 10 μM 2-β-mercaptoethanol.
(§2) The three HMCL are studied Le., LP-1, OPM-2 and JJN-3. Proliferation assays are performed in 96-well round-bottom microtiter plates at a cell density of 10^5 cells/mL. Cells are incubated for 3 days at 37° C. in a 5% CO2 humidified atmosphere with or without recombinant human IL-6 (rhIL-6) at 5 ng/ml, in the presence (or not) of the bisphosphonate of interest. Then, […] of […] is added during the last 18 hours. [^3H]-thymidine, incorporation is quantified by liquid scintillation spectroscopy.

JJN-3 = experiment: as above; assay type: cell-based, human; settings: for concentration at which proliferation returns to the level of the control: JJN-3
Procedure: as §1, §2

LP-1 = experiment: as above; assay type: cell-based, human; settings: for pIC50: Homo sapiens, LP-1, 72 h, 3 days
Procedure: as §1, §2

BMSC = experiment: Survival experiments, BMSC apoptosis by APO 2.7 flow cytometry; assay type: cell-based, human; settings: 10^−4 mol/L, 3-day incubation
Procedure: (§3) BMSC are obtained from 7 patients with MM after long term culture of bone marrow samples. Bone marrow mononuclear cells are isolated by Ficoll-Hypaque density centrifugation. The cells are plated in DMEM supplemented with 10% FCS and allowed to attach for 3 days, after which the medium is renewed. After 2 to 3 weeks of culture, a confluent adherent cell monolayer is obtained and then, after two passages using trypsin/ETA solution, BMSC are recovered for study. Cells are maintained in DMEM supplemented with 10% FCS, 2 mmol/L glutamine, 100 μg/mL streptomycin, 100 U/mL penicillin, and 5. 10^−5 mol/L 2-β-mercaptoethanol.
Adherent BMSC (3×10^5 cells) are plated in 25 cm^2 flasks and are incubated with either pamidronate (APD) or zoledronate, at the following concentrations: 10^−4 and 10^−5 mol/L. A control without bisphosphonate is performed After a 3-day incubation period, cells are washed with PBS and removed from the flasks using trypsin-EDTA for 20 seconds. The percentage of apoptotic cells is determined by flow cytometry using APO 2.7 mAb (Immunotech, Marseilles, France) (ibid.).

MMP-2 secretion by BMSC = experiment: Determination of gelatinase A (MMP-2) levels by gelatin substrate gel zymography; assay type: cell-based, human; settings: 48 h
Procedure: as §3
Adherent BMSC (10^4 cells) plated in 96-well plates are preincubated for 24 hours with either pamidronate or zoledronate. Then the medium is replaced by a fresh one without FCS but in the presence of different concentrations (10^−6, 10^−7, 10^−8, 10^−9 Mol/L) of each bisphosphonate. After a 48-hour incubation period, the supernatants are collected and stored at −20° C. until analysis. MMP-2 production is shown by gelatin substrate gel zymography. The supernatants are mixed with sodium dodecyl sulfate (SDS) sample buffer without reducing agent and then, proteins are separated by SDS-polyacrylamide gel electrophoresis in 7.5% polyacrylamide gels containing gelatin at 1 mg/ml, as previously described by Heussen and Dowdle(1980 Ann. Biochem. 102: 196-202) and adjusted for minigel format. After electrophoresis, SDS is removed from the gels by an incubation in 2.5% Triton X-100 for half an hour at room temperature. The gels are then incubated at 37° C. in a buffer containing 50 mM/L Tris-HCl 5 mM/L CaCl2, pH 7.6 for 24 hours. The gels were stained with Coomassie blue R250 (0.25%). […] The intensity of the gelatinolytic bands is analysed by densitometry. No interference between bisphosphonates and gelatin substrate gel zymography is observed using this assay (data not shown).

[4] = tested on: constitutive production of IL-6 by BMSC; experiment: Determination of IL-6 concentrations by ELISA; assay type: cell-based, human; settings: 48 h
Procedure: as §3
Adherent BMSC (10^4 cells) plated in 96-well plates are preincubated for 24 hours with either pamidronate or zoledronate. The medium is replaced by a fresh one containing 2% FCS and different concentrations of each bisphosphonate: 10^−6, 10^−7, 10^−8, 10^−9, 10^−10, 10^−11 Mol/L of zoledronate and 10^−6, 10^−7, 10^−8, 10^−9, 10^−10 Mol/L of pamidronate respectively. After a 48-hour incubation period, the supernatants are collected and stored at −20° C. until analysis. L6 A production is measured by ELISA (ELISA test concentrations ranging from 10 to 500 pg/mL) (Innotest, Besancon, France). No interference between the bisphosphonates and ELISA is observed in this study (data not shown). Six of the seven BMSC are tested for production of IL-6 in the presence of bisphosphonates.

[5] = tested on: IL-1β-induced MMP-1 secretion by BMSC; experiment: Determination of interstitial collagenase (MMP-1) levels by ELISA; assay type: cell-based, human; settings: IL-1β (10 ng/ml) stimulated, 48 h, mean ± SD
Procedure: as §3
Adherent BMSC (15×10^3 cells) plated in 96-well plates are preincubated for 24 hours with either pamidronate or zoledronate. Then the cells are stimulated by IL-1β (10 ng/ml) in the presence of different concentrations (10^−6, 10^−7, 10^−8 and 10^−9 Mol/L) of each bisphosphonate without FCS. After a 48-hour incubation period, supernatants are collected and stored at −20° C. until analysis. MMP-1 levels are measured by ELISA (Amersham, Les Ulis, France). This assay measures MMP-1 irrespective of its mode of presentation (i.e. free or bound, active or not).

[6] = tested on: human myeloma cell lines (HMCL) LP-1, OPM-2 and JJN-3; experiment: Proliferation of HMCL, [3H]-thymidine incorporation (three cell lines together); assay type: cell-based; settings: for inhibition at 500 µM: Homo sapiens, 72 h, all the HMCL
Procedure: as §1, §2

LP-1 cells = experiment: Analysis of cell cycle, propidium iodide flow cytometry; assay type: cell-based, human; settings: LP-1, 5×10^−4 Mol/L, 4 day incubation; control 36%
Procedure: LP-1 cells (2×10^5 cells) plated in a 24 well-plate are incubated in the presence of 5×10^−4 Mol/L of either pamidronate or zoledronate. A control without bisphosphonate is performed. Cells are recovered after a 4day incubation period and washed. They are then incubated for 40 minutes at 37° C. with a solution of Triton×100 0.1%, Sodium Citrate 0.1%, 5 IU of RNAse and stained with propidium iodide (PI) 50 mg/L: Flow cytometry analysis is performed on a FACSCalibur using a CELLQuest program (Becton Dickinson). Data are gated on the F12-Area venus FL2-Width cytogram to exclude doublets and agregates, and a minimum of 2.5×10^4 gated cells is collected per sample. Analysis of the cell cycle was performed using the Modfit LT for Mac V2.01 program (Verity Software House, Inc). Apoptotic cells were detected as a subdiploid peak as described by Zamai et al. (1993, Cytometry 14: 891-897)

Row | SMILES | production and secretion of MMP-2 by PC-3 ML cells [2] | pIC50 (OPM-2) | concentration at which proliferation returns to the level of the control (JJN-3) | pIC50 (LP-1) | APO 2.7 stained (apoptotic) BMSC (BMSC) | MMP-2 upregulation (72 kDa gelatinase activity, densitometry) (MMP-2 secretion by BMSC; 10^−6 mol/L) | concentration at which IL-6 production returns to the basal level ([4]; BMSC) | inhibition of MMP-1 secretion by BMSC [5] | inhibition at 500 µM ([6]; 5×10^−4 Mol/L, 3 days) | also measured
1 | NCCCC(O)(P(=O)(O)O)P(=O)(O)O [alendronate, 4-amino-1-hydroxybutane-1,1-diphosphonic acid] | independently reduced, in part | – | – | – | – | – | – | – | – | establishment of bone metastases [1]: partially blocked
2 | CCCCCN(C)CCC(O)(P(=O)(O)O)P(=O)(O)O [ibandronate, 1-hydroxy-3-(methylpentylamino)-propylidene-bisphosphonic acid] | – | – | – | – | – | – | – | – | – | osteolytic lesions in bone (radiographs) [3]: markedly decreased
3 | NCCC(O)(P(=O)(O)O)P(=O)(O)O [pamidronate, (3-amino-1-hydroxypropylidene) bis-phosphonate] | – | 3.53 | 1e-05 mol/L | 3.68 | 97% | 165%±27% | 10^−11 mol/L | 21%±20% | 75% | pIC50 (JJN-3; Homo sapiens, JJN-3, 72 h, 3 days): 3.97; inhibition of IL-6 production by BMSC ([4]; not proportional to dose, six BMSC samples, p=0.05): 40%±14%; percentage of proliferation, of that of the control ([6]; 5×10^−4 Mol/L, the three cell lines, 3 days): 25%; concentration up to which dose-dependent inhibition of proliferation is observed ([6]; except for JJN-3): 5e-05 mol/L
4 | CC(=O)O[C@H]1C(=O)[C@@]2(C)[C@H]([C@H](OC(=O)c3ccccc3)[C@]3(O)C[C@H](OC(=O)[C@H](O)[C@@H](NC(=O)c4ccccc4)c4ccccc4)C(C)=C1C3(C)C)[C@]1(OC(C)=O)CO[C@@H]1C[C@@H]2O [taxol] | independently reduced, in part | – | – | – | – | – | – | – | – | –
5 | O=P(O)(O)C(O)(Cn1ccnc1)P(=O)(O)O [zoledronate, (1-hydroxy-2-(1H-imidazole-1-yl)ethylidene) bisphosphonate] | – | 3.81 | 1e-05 mol/L | 3.71 | 24% | 180%±12% and 205%±7% | 10^−9 mol/L | 44%±14% | ~95% | concentration at which normal proliferation rate is recovered (OPM-2; OPM-2): 5e-05 mol/L; concentration at which normal proliferation rate is recovered (LP-1; LP-1): 5e-05 mol/L; percentage of cells in S phase (LP-1 cells): 60%; MMP-2 upregulation (72 kDa gelatinase activity, densitometry) (MMP-2 secretion by BMSC; 10^−9 mol/L): 159%±16%; inhibition at 1 µM ([4]; Homo sapiens, BMSC, 10^−6 mol/L, p=0.05, read-out: maximum inhibition of IL-6 production by BMSC): 60%
